Data on 20 compounds can be found in patent US7208521B2, “Selective inhibitors of the urokinase plasminogen activator” (Wilex AG, priority 1999, dated 2007).

Read-outs that look alike come from different tables or passages of the source. Where only a bound is given, the exact number is not on record here.

Data set [1] has as its target T1, sc-urokinase (uPA) (Homo sapiens, UniProt P00749).
T1 construct: purchased Ribosepharm GmbH, Haan, Germany
The experiment in a line: In-vitro inhibition of urokinase, chromogenic substrate, Dixon Ki. The data set is classed as biochemical. As for the experimental part: (§1) The uPA inhibitor activity was determined by incubating 200 μl of Tris buffer (0.05 mol/l, containing the inhibitor, 0.154 mol/l NaCl, 5% ethanol, pH 8.0), 25 μl of substrate (Pefachrome UK or BZ-β-Ala-Gly-Arg-pNA in H2O; Pentapharm Ltd, Basle, Switzerland) and 50 μl of sc-urokinase (Ribosepharm GmbH, Haan, Germany) or another corresponding protease at 25° C. After 3 min, the reaction was interrupted by adding 25 μl of acetic acid (50%) and absorbance at 405 nm was determined by means of a microplate reader (MR 5000, Dynatech, Denkendorf, Germany). The Ki values were determined by linear regression according to Dixon by means of a computer program. The Ki values are the average of at least three determinations, and the standard deviation was below 25%.

Data set [2] has as its target F Xa (Homo sapiens, UniProt P00742). The experiment in a line: In-vitro protease inhibition, chromogenic substrate, Dixon Ki. The data set is classed as biochemical. As for the experimental part: as §1
Data set [3] has as its target Thrombin (Homo sapiens, UniProt P00734). Described as above. The data set is classed as biochemical. Here is the method: as §1
The target in data set [4] is T2, Trypsin (UniProt P00760).
T2 sequence (P00760 1-246): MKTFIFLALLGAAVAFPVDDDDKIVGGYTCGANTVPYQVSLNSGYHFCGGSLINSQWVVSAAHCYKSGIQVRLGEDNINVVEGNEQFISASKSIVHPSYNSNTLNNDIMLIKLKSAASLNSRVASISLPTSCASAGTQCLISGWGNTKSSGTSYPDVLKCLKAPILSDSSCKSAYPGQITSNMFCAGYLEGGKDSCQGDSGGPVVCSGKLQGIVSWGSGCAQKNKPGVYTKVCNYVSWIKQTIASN
Described as above. The data set is classed as biochemical. Here is the method:
The Ki values were determined by linear regression according to Dixon by means of a computer program.

The subject of data set [5] is rat breast adenocarcinoma cells. The settings on record: after i.v. inoculation of tumor cells; cited from earlier work.
Data set [6] deals with Plasmin (Homo sapiens, UniProt P00747). Description: In-vitro protease inhibition, chromogenic substrate, Dixon Ki. The settings on record: 25° C., pH 8.0. The data set is classed as biochemical. Here is the method:
as §1

Data set [7] deals with DU145 tumors (a prostate adenocarcinoma cell line). The following applies: oral, daily dose of 125 to 250 mg/kg/day; cited from earlier work.
Data set [8] relates to rat prostate cancer. The settings on record: syngeneic rat prostate cancer; cited from earlier work.
The test system of data set [9] is mouse breast cancer. The following applies: cited from earlier work.
The mark [10] stands for this setting: 25° C., pH 8.0, average of at least three determinations, read-out: Ki uPA.
Setting [11] is: 25° C., pH 8.0, read-out: Ki F Xa.
The mark [12] stands for this setting: 25° C., pH 8.0, read-out: Ki Thrombin.
Setting [13] is: 25° C., pH 8.0; read-out: Ki Trypsin.
[14] abbreviates: Ki uPA, 25° C., pH 8.0, average of at least three determinations.
[15] abbreviates: read-out: Ki Trypsin; 25° C., pH 8.0.

F Xa, sequence (P00742 235-488 limits assumed): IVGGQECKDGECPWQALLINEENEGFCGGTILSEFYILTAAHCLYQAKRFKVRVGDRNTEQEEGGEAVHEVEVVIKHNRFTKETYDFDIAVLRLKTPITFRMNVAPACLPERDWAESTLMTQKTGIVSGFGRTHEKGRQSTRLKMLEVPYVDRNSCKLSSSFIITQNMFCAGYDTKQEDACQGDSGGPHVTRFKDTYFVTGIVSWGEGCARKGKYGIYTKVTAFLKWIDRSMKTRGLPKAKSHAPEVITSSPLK
F Xa, sequence (P00742 41-179 partner limits assumed): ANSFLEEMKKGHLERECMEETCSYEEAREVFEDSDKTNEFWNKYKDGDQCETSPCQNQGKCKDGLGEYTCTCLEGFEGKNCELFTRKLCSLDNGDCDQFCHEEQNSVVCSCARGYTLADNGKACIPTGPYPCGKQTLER
Plasmin, sequence (P00747 581-810 limits assumed, species assumed): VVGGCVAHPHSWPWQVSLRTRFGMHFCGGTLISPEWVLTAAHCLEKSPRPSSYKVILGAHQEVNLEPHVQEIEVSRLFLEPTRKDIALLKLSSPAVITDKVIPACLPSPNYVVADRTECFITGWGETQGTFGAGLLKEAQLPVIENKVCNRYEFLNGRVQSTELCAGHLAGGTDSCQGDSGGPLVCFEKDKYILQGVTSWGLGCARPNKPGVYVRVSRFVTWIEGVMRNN
Plasmin, sequence (P00747 97-580 partner limits assumed, species assumed): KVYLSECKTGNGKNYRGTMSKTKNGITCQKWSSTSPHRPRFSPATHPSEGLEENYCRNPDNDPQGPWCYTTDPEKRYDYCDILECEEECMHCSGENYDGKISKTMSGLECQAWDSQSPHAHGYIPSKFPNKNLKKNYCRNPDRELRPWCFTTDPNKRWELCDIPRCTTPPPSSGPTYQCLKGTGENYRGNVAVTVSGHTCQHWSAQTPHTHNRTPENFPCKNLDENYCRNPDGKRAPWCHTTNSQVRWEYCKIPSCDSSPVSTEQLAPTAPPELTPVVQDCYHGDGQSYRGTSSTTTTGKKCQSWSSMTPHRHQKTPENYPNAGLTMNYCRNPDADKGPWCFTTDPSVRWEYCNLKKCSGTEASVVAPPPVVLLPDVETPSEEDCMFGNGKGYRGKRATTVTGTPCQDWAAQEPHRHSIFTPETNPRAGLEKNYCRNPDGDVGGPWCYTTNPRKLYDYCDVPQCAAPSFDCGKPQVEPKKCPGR

As for `N=C(N)Nc1ccc(CNC(=O)OCc2ccc([N+](=O)[O-])cc2)cc1` [ST 311], the Ki in [1] (setting [10]) is 12 µM; in data set [2] (setting [11]) it was > 1000 µM; in [3] (setting [12]) it was > 1000 µM; in data set [4] (setting [13]) it was 200 µM.
Take `N=C(N)NC(=O)c1nc(Cl)c(N)nc1N` [amiloride]: the “formation of lung metastases” value in data set [5] was “prevents the formation of lung metastases”.
As for `CC(C)c1cc(C(C)C)c(S(=O)(=O)NCC(=O)NCc2ccc(NC(=N)N)cc2)c(C(C)C)c1` [ST 298], the Ki is 42 µM in data set [1] (setting [10]); > 1000 µM in [2] (setting [11]); > 1000 µM in data set [6]; > 1000 µM in data set [3] (setting [12]); 37 µM in [4] (setting [13]).
In the case of `CC(=O)Nc1ccc(S(=O)(=O)NCC(=O)NCc2ccc(NC(=N)N)cc2)cc1` [ST 296], the Ki in data set [1] (setting [10]) is 22 µM; in data set [2] (setting [11]), > 1000 µM; in data set [6], > 1000 µM; in data set [3] (setting [12]), > 1000 µM; in data set [4] (setting [13]), 42 µM.
As to `CC(C)(C)COC(=O)NCc1ccc(NC(=N)N)cc1` [ST 271], the Ki was 51 µM in data set [1] (setting [10]); > 1000 µM in [2] (setting [11]); > 1000 µM in data set [6]; > 1000 µM in [3] (setting [12]); > 1000 µM in [4] (setting [13]).
With `CC(C)(C)OC(=O)NCC(=O)NCc1ccc(NC(=N)N)cc1` [ST 294], the Ki is 37 µM in data set [1] (setting [10]); > 1000 µM in data set [2] (setting [11]); > 1000 µM in data set [6]; > 1000 µM in data set [3] (setting [12]); > 1000 µM in data set [4] (setting [13]).
As for `CC(C)(C)OC(=O)NCc1ccc(NC(=N)N)cc1` [ST 242], the Ki in [1] (setting [10]) was 36 µM; in [2] (setting [11]) it was > 1000 µM; in data set [6], > 1000 µM; in [3] (setting [12]), > 1000 µM; in data set [4] (setting [13]) it was > 1000 µM.
For `CC(C)OC(=O)NCc1ccc(NC(=N)N)cc1` [ST 273], the Ki in [1] (setting [10]) was 52 µM; in data set [2] (setting [11]) it was > 1000 µM; in data set [6], 130 µM; in data set [3] (setting [12]) it was > 1000 µM; in [4] (setting [13]), > 1000 µM.
For `N=C(N)Nc1ccc(CNC(=O)Oc2ccc(/N=N/c3ccccc3)cc2)cc1` [ST 315], the Ki in data set [1] (setting [14]) is 11 µM; in data set [1] (Ki value for uPA), > 1000 µM; in [2] it was > 1000 µM; in data set [3], > 1000 µM; in data set [4] (setting [15]), 200 µM.
For `COc1cc(COC(=O)NCc2ccc(NC(=N)N)cc2)c([N+](=O)[O-])cc1OC` [ST 313], the Ki is 35 µM in [1] (setting [10]), > 1000 µM in data set [2] (setting [11]) and > 1000 µM in [3] (setting [12]).
Take `N=C(N)Nc1ccc(N)cc1` [ST 267]: the Ki in [1] (setting [10]), in data set [2] (setting [11]), in data set [6], in data set [3] (setting [12]) and in data set [4] (setting [13]) was > 1000 µM in each case.
Turning to `CC(=O)Nc1ncc(S(=O)(=O)NCc2ccc(NC(=N)N)cc2)s1` [ST 282], the Ki in data set [1] (setting [10]) was 240 µM; in [2] (setting [11]), > 1000 µM; in [6], > 1000 µM; in data set [3] (setting [12]), > 1000 µM; in data set [4] (setting [13]) it was > 1000 µM.
Consider `CCOC(=O)NCc1ccc(NC(=N)N)cc1` [ST 269], for which the Ki in data set [1] (setting [10]) is 27 µM; in data set [2] (setting [11]), > 1000 µM; in data set [6], > 1000 µM; in [3] (setting [12]), > 1000 µM; in [4] (setting [13]) it was > 1000 µM.
Turning to `N=C(N)Nc1ccc(CNC(=O)Nc2ccccc2)cc1` [ST 301], the Ki was 29 µM in data set [1] (setting [10]); 330 µM in [2] (setting [11]); 170 µM in data set [6]; > 1000 µM in data set [3] (setting [12]); > 1000 µM in data set [4] (setting [13]).
As to `CC(C)(c1ccc(OC(=O)NCc2ccc(NC(=N)N)cc2)cc1)c1ccc(OC(=O)NCc2ccc(NC(=N)N)cc2)cc1` [ST 312], the “uPA inhibition, result in words” value in data set [1] is “particularly effective and selective inhibitors”. Also, the Ki in data set [1] (setting [14]) was 2.8 µM; in data set [1] (Ki value for uPA), > 1000 µM; in data set [2], > 1000 µM; in [3] it was > 1000 µM; in data set [4] (setting [15]), 100 µM.
As to `N=C(N)Nc1ccc(CNC(=O)OC23C[C@H]4C[C@@H](C2)C[C@@H](C3)C4)cc1` [ST 274], the Ki in data set [1] (setting [10]) is 23 µM; in [2] (setting [11]), > 1000 µM; in [6], > 1000 µM; in [3] (setting [12]), > 1000 µM; in data set [4] (setting [13]), > 1000 µM.
Turning to `N=C(N)c1ccc(N)cc1` [p-Aminobenzamidine], in data set [7], the “growth rate of DU145 tumors” value was “distinct decrease in the growth rate” and the side effects result is given as “negligible”.
`N=C(N)Nc1ccc(CNC(=O)NC23C[C@H]4C[C@@H](C2)C[C@@H](C3)C4)cc1` [ST 293]: in [1], the “uPA inhibition, result in words” value is “particularly effective and selective inhibitors”. The Ki is 2.4 µM in data set [1] (setting [10]); > 1000 µM in data set [1] (read-out: Ki value for uPA); > 1000 µM in data set [2] (setting [11]); > 1000 µM in data set [6]; 600 µM in data set [3] (setting [12]); 46 µM in data set [4] (setting [13]).
For the compound `N=C(N)c1cc2c(I)cccc2s1` [B428, 4-iodobenzo[b]thiophene-2-carboxamidine], the “tumor growth and metastases formation” value in data set [8] is “decrease of tumor growth and metastases formation”; in data set [9] (syngeneic mouse breast cancer), “decrease of tumor growth and metastases formation”. For the same compound, in data set [9] (administered together with the antiestrogen tamoxifen), the primary tumor growth result is “further decrease in primary tumor growth”.
As for `N=C(N)Nc1ccc(CN)cc1` [ST 275], the Ki in data set [1] (setting [10]), in data set [2] (setting [11]), in [6], in [3] (setting [12]) and in data set [4] (setting [13]) was > 1000 µM each time.

A word on the Ki: it is a dissociation constant, usually derived from enzyme kinetics or from competition with a known ligand.
